We go through 15 compounds from patent US12195482B1 (Arcus Biosciences, Inc., priority 2022, dated 2025).

One assay has as its target T1, Axl (Homo sapiens, UniProt P30530).
T1 sequence (P30530 26-894): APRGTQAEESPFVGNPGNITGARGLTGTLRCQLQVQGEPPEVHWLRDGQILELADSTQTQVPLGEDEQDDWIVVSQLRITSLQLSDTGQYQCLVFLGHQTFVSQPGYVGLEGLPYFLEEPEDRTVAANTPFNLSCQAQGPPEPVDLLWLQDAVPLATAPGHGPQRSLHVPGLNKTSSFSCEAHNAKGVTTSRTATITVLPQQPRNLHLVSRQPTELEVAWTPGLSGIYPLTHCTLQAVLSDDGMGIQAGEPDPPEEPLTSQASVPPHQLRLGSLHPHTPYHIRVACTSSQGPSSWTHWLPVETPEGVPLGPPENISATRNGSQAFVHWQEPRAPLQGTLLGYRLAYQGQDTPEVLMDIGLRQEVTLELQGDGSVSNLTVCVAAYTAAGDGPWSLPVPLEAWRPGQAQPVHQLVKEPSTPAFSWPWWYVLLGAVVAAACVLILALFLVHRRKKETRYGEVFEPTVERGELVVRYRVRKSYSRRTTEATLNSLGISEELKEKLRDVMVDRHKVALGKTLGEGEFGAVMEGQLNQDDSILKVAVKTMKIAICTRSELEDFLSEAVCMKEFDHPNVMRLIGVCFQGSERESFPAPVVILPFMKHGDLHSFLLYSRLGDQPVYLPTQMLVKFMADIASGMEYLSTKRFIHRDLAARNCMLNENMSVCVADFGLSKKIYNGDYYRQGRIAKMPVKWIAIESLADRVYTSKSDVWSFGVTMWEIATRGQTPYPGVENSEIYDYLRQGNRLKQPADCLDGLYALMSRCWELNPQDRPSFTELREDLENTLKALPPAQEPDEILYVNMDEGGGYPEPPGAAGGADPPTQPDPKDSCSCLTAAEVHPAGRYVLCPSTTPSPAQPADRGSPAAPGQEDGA
Briefly: Biochemical potency, HTRF KinEASE-TK kinase assay. The note with it: 5 nM AXL, 700 μM ATP. More on the design: purchased Invitrogen. A digest of the protocol:
(§1)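 Steps: compound plus kinase, 1 h RT; add ATP (700 µM final) and biotin-TK substrate (800 nM final); run 2 h RT; stop into streptavidin-XL665/anti-phospho cryptate detection mix, 1 h; read 665/620. AXL at 5 nM, TYRO3 and MER at 1 nM.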
(In general: TR-FRET usually uses a lanthanide donor and a delayed reading to cut background.)

The next assay deals with T2, recombinant human TYRO3 (Homo sapiens, UniProt Q06418).
T2 construct: purchased Invitrogen
T2 sequence (Q06418 41-890): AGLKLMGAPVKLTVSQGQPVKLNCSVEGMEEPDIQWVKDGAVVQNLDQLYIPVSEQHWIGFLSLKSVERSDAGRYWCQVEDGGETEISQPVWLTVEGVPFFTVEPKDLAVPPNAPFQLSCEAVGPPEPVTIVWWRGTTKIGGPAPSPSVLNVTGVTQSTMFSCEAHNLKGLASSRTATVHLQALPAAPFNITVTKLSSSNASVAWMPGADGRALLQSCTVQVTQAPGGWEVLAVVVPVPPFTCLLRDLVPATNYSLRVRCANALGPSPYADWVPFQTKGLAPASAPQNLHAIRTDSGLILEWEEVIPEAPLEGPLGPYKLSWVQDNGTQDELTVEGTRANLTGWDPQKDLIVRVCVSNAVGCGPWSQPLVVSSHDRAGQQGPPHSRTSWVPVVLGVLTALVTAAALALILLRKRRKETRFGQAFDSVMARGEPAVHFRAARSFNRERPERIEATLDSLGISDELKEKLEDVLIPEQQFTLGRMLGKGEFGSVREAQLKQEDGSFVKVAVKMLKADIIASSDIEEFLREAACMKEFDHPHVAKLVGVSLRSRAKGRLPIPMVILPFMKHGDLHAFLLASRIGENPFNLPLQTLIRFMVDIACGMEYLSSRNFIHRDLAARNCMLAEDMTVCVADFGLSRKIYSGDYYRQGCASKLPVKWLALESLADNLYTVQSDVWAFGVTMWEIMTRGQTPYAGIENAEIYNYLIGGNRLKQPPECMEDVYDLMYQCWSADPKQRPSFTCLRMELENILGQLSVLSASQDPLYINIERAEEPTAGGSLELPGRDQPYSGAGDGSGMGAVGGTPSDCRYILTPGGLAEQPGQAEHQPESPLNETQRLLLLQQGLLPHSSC
Kind of assay: Biochemical potency, HTRF KinEASE-TK kinase assay. The settings on record: 1 nM TYRO3, 700 μM ATP. A digest of the protocol: as §1

The IC50 is the point on the concentration scale where inhibition reaches its midpoint. Regarding `Cc1cccnc1-c1ccc(-c2n[nH]c3ncc(-c4ccc5c(c4)CC[C@@](C)(N4CCC[C@H]4C)CC5)cc23)cc1` [Example 163, 3-Methyl-2-(4-{5-[(7S)-7-methyl-7-[(2R)-2-methylpyrrolidin-1-yl]-6,7,8,9-tetrahydro-5H-benzo[7]annulen-2-yl]-2H-pyrazolo[3,4-b]pyridin-3-yl}phenyl)pyridine], the half-inhibitory concentration (IC50) on Axl and on recombinant human TYRO3 was less than 100 nM in each case.

`CO[C@H]1C[C@@H](N[C@H]2CCc3ccc(-c4cnc5[nH]nc(-c6ccc(-c7ncccc7C)cc6)c5c4)cc3CC2)C1` [Example 131, (7S)-2-{3-[4-(3-Methylpyridin-2-yl)phenyl]-1H-pyrazolo[3,4-b]pyridin-5-yl}-N-[cis-3-methoxycyclobutyl]-6,7,8,9-tetrahydro-5H-benzo[7]annulen-7-amine]: the IC50 against Axl and at recombinant human TYRO3 was less than 100 nM throughout.

For the compound `C[C@H]1COC(=O)N1c1cccnc1-c1ccc(-c2n[nH]c3ncc(-c4ccc5c(c4)CC[C@@H](N4C6COCC4C6)CC5)cc23)cc1` [Example 125, (4S)-4-Methyl-3-[2-(4-{5-[(7S)-7-{3-oxa-6-azabicyclo[3.1.1]heptan-6-yl}-6,7,8,9-tetrahydro-5H-benzo[7]annulen-2-yl]-1H-pyrazolo[3,4-b]pyridin-3-yl}phenyl)pyridin-3-yl]-1,3-oxazolidin-2-one], the IC50 at Axl and on recombinant human TYRO3 was less than 100 nM each time.

In the case of `FC(F)Oc1cccnc1-c1ccc(-c2n[nH]c3ncc(-c4ccc5c(c4)CC[C@@H](N4C6COCC4C6)CC5)cc23)cc1` [Example 99, 6-[(7S)-2-(3-{4-[3-(Difluoromethoxy)pyridin-2-yl]phenyl}-1H-pyrazolo[3,4-b]pyridin-5-yl)-6,7,8,9-tetrahydro-5H-benzo[7]annulen-7-yl]-3-oxa-6-azabicyclo[3.1.1]heptane], the IC50 against Axl is less than 100 nM; at recombinant human TYRO3 it was 100 to 1000 nM.

In the case of `Cc1nn(C)nc1-c1ccc(-c2n[nH]c3ncc(-c4ccc5c(c4)CC[C@@H](N4C6COCC4C6)CC5)cc23)cc1` [Example 14, 6-[(7S)-2-{3-[4-(2,5-Dimethyl-2H-1,2,3-triazol-4-yl)phenyl]-1H-pyrazolo[3,4-b]pyridin-5-yl}-6,7,8,9-tetrahydro-5H-benzo[7]annulen-7-yl]-3-oxa-6-azabicyclo[3.1.1]heptane], the concentration for half-maximal inhibition (IC50) on Axl and on recombinant human TYRO3 was less than 100 nM throughout.

As to `CS(=O)(=O)c1cccnc1-c1ccc(-c2c[nH]c3ncc(-c4ccc5c(c4)CC[C@@H](N4C6COCC4C6)CC5)cc23)cc1` [Example 102, 6-[(7S)-2-{3-[4-(3-Methanesulfonylpyridin-2-yl)phenyl]-1H-pyrrolo[2,3-b]pyridin-5-yl}-6,7,8,9-tetrahydro-5H-benzo[7]annulen-7-yl]-3-oxa-6-azabicyclo[3.1.1]heptane], the IC50 against Axl and at recombinant human TYRO3 was less than 100 nM each time.

For the compound `Cc1cccnc1-c1ccc(-c2c[nH]c3ncc(-c4ccc5c(c4)CC[C@@H](N[C@H]4CCCOC4)CC5)cc23)cc1` [Example 186, (3S)—N-[(7S)-2-{3-[4-(3-Methylpyridin-2-yl)phenyl]-1H-pyrrolo[2,3-b]pyridin-5-yl}-6,7,8,9-tetrahydro-5H-benzo[7]annulen-7-yl]oxan-3-amine], the IC50 on Axl and at recombinant human TYRO3 was less than 100 nM throughout.

For `Cc1ccc(C)c(-c2ccc(-c3n[nH]c4ncc(-c5ccc6c(c5)CC[C@@H](N5C7COCC5C7)CC6)cc34)cc2)n1` [Example 120, 6-[(7S)-2-{3-[4-(3,6-Dimethylpyridin-2-yl)phenyl]-1H-pyrazolo[3,4-b]pyridin-5-yl}-6,7,8,9-tetrahydro-5H-benzo[7]annulen-7-yl]-3-oxa-6-azabicyclo[3.1.1]heptane], the IC50 against Axl and on recombinant human TYRO3 was less than 100 nM in each case.

`Cc1ncc(C)c(-c2ccc(-c3c[nH]c4ncc(-c5ccc6c(c5)CC[C@@H](N5C7COCC5C7)CC6)cc34)cc2)n1` [Example 123, 6-[(7S)-2-{3-[4-(2,5-Dimethylpyrimidin-4-yl)phenyl]-1H-pyrrolo[2,3-b]pyridin-5-yl}-6,7,8,9-tetrahydro-5H-benzo[7]annulen-7-yl]-3-oxa-6-azabicyclo[3.1.1]heptane]: the IC50 at Axl and on recombinant human TYRO3 was less than 100 nM in each case.

Take `CN(C(=O)C1CC1)c1cccnc1-c1ccc(-c2n[nH]c3ncc(-c4ccc5c(c4)CC[C@@H](N4C6COCC4C6)CC5)cc23)cc1` [Example 128, N-Methyl-N-[2-(4-{5-[(7S)-7-{3-oxa-6-azabicyclo[3.1.1]heptan-6-yl}-6,7,8,9-tetrahydro-5H-benzo[7]annulen-2-yl]-1H-pyrazolo[3,4-b]pyridin-3-yl}phenyl)pyridin-3-yl]cyclopropanecarboxamide]: the IC50 against Axl and at recombinant human TYRO3 was less than 100 nM each time.

`c1cncc(-c2ccc(-c3c[nH]c4ncc(-c5ccc6c(c5)CC[C@@H](N5C7COCC5C7)CC6)cc34)cc2)c1` [Example 158, 6-[(7S)-2-{3-[4-(Pyridin-3-yl)phenyl]-1H-pyrrolo[2,3-b]pyridin-5-yl}-6,7,8,9-tetrahydro-5H-benzo[7]annulen-7-yl]-3-oxa-6-azabicyclo[3.1.1]heptane]: the IC50 against Axl is less than 100 nM; at recombinant human TYRO3 it was more than 1000 nM.

Regarding `FC(F)(F)Oc1cccnc1-c1ccc(-c2c[nH]c3ncc(-c4ccc5c(c4)CC[C@@H](N4C6COCC4C6)CC5)cc23)cc1` [Example 103, 6-[(7S)-2-(3-{4-[3-(Trifluoromethoxy)pyridin-2-yl]phenyl}-1H-pyrrolo[2,3-b]pyridin-5-yl)-6,7,8,9-tetrahydro-5H-benzo[7]annulen-7-yl]-3-oxa-6-azabicyclo[3.1.1]heptane], the values for the IC50 on Axl and on recombinant human TYRO3 were less than 100 nM and more than 1000 nM, respectively.

For `CC(C)(O)c1cccnc1-c1ccc(-c2n[nH]c3ncc(-c4ccc5c(c4)CC[C@@H](N4C6COCC4C6)CC5)cc23)cc1` [Example 10, 2-[2-(4-{5-[(7S)-7-{3-Oxa-6-azabicyclo[3.1.1]heptan-6-yl}-6,7,8,9-tetrahydro-5H-benzo[7]annulen-2-yl]-1H-pyrazolo[3,4-b]pyridin-3-yl}phenyl)pyridin-3-yl]propan-2-ol], the IC50 at Axl and at recombinant human TYRO3 was less than 100 nM throughout.

As for `COc1cccnc1-c1ccc(-c2n[nH]c3ncc(-c4ccc5c(c4)CC[C@@H](N4C6COCC4C6)CC5)cc23)cc1` [Example 166, 6-[(7S)-2-{3-[4-(3-Methoxypyridin-2-yl)phenyl]-1H-pyrazolo[3,4-b]pyridin-5-yl}-6,7,8,9-tetrahydro-5H-benzo[7]annulen-7-yl]-3-oxa-6-azabicyclo[3.1.1]heptane], the half-inhibitory concentration (IC50) against Axl and on recombinant human TYRO3 was less than 100 nM each time.

`O=C(c1cccnc1-c1ccc(-c2n[nH]c3ncc(-c4ccc5c(c4)CC[C@@H](N4C6COCC4C6)CC5)cc23)cc1)N1CCCC1` [Example 4, 6-[(7S)-2-(3-{4-[3-(Pyrrolidine-1-carbonyl)pyridin-2-yl]phenyl}-1H-pyrazolo[3,4-b]pyridin-5-yl)-6,7,8,9-tetrahydro-5H-benzo[7]annulen-7-yl]-3-oxa-6-azabicyclo[3.1.1]heptane]: the IC50 was less than 100 nM against Axl and 100 to 1000 nM on recombinant human TYRO3.
